What follows are compounds tested on TEAD-dependent transcription (assay: TEAD-dependent transcription cell-based reporter assay (MSTO-211H+12XGTIIC luciferase)). Details: Homo sapiens; MSTO-211H+12XGTIIC cell line, luciferase signal normalized to cell viability, 24 hours compound incubation; read-out: MSTO-211H GMean IC50 (uM) Cell Assay Reporter Cell Variant: TEAD.
Parameters: species or system human
Source text: Determine Inhibitor Activity Against TEAD-Dependent Transcription in a Cell-Based Reporter Assay
The human mesothelioma cell line MSTO-211H was stably transfected with a pGL4.21 plasmid containing a synthetic promoter with 12 copies of the GTIIC TEAD response element that drives the expression of a luciferase reporter gene^1 using Lipofectamine transfection reagent (Thermo Fisher). Transfected cells were selected using puromycin and single cell clones expressing this construct (referred to as MSTO-211H+12XGTIIC) were generated by limiting dilution. MSTO-211H cells was characterized by genetic alterations in key components of the Hippo pathway^2, resulting in up-regulation of YAP/TEAD-mediated transcription. […] To evaluate TEAD inhibitors, the MSTO-211H+12XGTIIC cell line was seeded in a 96-well plate in 50 μL of culture media at 1×10^4 cells per well and incubated at 37° C. overnight. Serial dilutions of compounds (in total volume of 50 μL of culture media) were added to the cells and incubated at 37° C. for 24 hours. Each plate included cells treated with DMSO as high controls and cells treated with 20 μM of the reference compound K-975 (a known TEAD inhibitor)^3 as low controls. Cell viability was assayed by the addition of 25 μL of CellTiter-Fluor reagent (Promega) followed by a 30-minute incubation at 37° C. and quantification of the fluorescence signal (Ex400/Em505). Subsequently, luciferase expression was assayed by the addition of 25 μL of ONE-Glo reagent (Promega) followed by a 10-minute incubation at room temperature and quantification of the luminescence signal. The luminescence signal was normalized to the fluorescence signal to correct for any loss in cell viability over the 24-hour compound incubation period. The percentage of inhibition of normalized luminescence signal, indicative of compound-mediated inhibition of TEAD-dependent transcription, at individual compound concentrations relative to high and low controls was calculated. The data were analyzed by using nonlinear regression to generate IC50 values for individual compounds.
Work on O=C(Cc1n[nH]c(=O)[nH]1)N1CCc2ccc(Oc3ccc(C(F)(F)F)c(F)c3)cc2C1 [P-0160, 5-(2-(7-(3-fluoro-4-(trifluoromethyl)phen-oxy)-3,4-dihydroisoquin-olin-2(1H)-yl)-2-oxoeth-yl)-2,4-dihydro-3H-1,2,4-triazol-3-one] yielded an IC50 of 0.001 to 10 µM. Compound O=C(Cc1cnc[nH]1)N1CCc2ccc(Oc3ccc(C(F)(F)F)c(F)c3)cc2C1 [P-0150, 1-(7-(3-fluoro-4-(trifluoromethyl)phen-oxy)-3,4-dihydroisoquin-olin-2(1H)-yl)-2-(1H-imidazol-5-yl)ethan-1-one] has an IC50 of 0.001 to 10 µM. Compound CNS(=O)(=O)N1CCc2ccc(Oc3ccc(C(F)(F)F)cc3)cc2C1 [P-0012, N-methyl-7-(4-(trifluoro-methyl)phenoxy)-3,4-dihydroisoquinoline-2(1H)-sulfonamide] has an IC50 of 0.001 to 10 µM. In the case of O=C1CC(CC(=O)N2CCc3ccc(Oc4ccc(C(F)(F)F)cc4)cc3C2)C(=O)N1 (stereo not shown) [P-0043, 3-(2-oxo-2-(7-(4-(trifluoromethyl)phen-oxy)-3,4-dihydroiso-quinolin-2(1H)-yl)ethyl)-pyrrolidine-2,5-dione], the IC50 is reported as 0.001 to 10 µM. For O=C(C1CS(=O)(=O)C1)N1CCc2ccc(Oc3ccc(C(F)(F)F)cc3)cc2C1 [P-0077, (1,1-dioxidothietan-3-yl)(7-(4-(trifluorometh-yl)phenoxy)-3,4-dihydro-isoquinolin-2(1H)-yl)-methanone], the IC50 was 0.001 to 10 µM. CS(=O)(=O)c1nccc(N2CCc3ccc(Oc4ccc(C(F)(F)F)cc4)cc3C2)n1 [P-0226, 2-(2-(methylsulfonyl)-pyrimidin-4-yl)-7-(4-(trifluoromethyl)phen-oxy)-1,2,3,4-tetrahydro-isoquinoline] was tested, and the IC50 was 0.001 to 10 µM. Work on O=C(CCn1cnnc1)N1CCc2c(cccc2Oc2ccc(C(F)(F)F)cc2)C1 [P-0250, 3-(4H-1,2,4-triazol-4-yl)-1-(5-(4-(trifluoromethyl)-phenoxy)-3,4-dihydro-isoquinolin-2(1H)-yl)-propan-1-one] yielded an IC50 of 0.001 to 10 µM. With O=C(NC1CC1)N1CCc2ccc(Oc3ccc(C(F)(F)F)cc3)cc2C1 [P-0004, N-cyclopropyl-7-(4-(trifluoromethyl)phen-oxy)-3,4-dihydroiso-quinoline-2(1H)-carbox-amide] the IC50 was 0.001 to 10 µM. In the case of NC(=O)c1cccc(N2CCc3ccc(Oc4ccc(C(F)(F)F)cc4)cc3C2)n1 [P-0228, 6-(7-(4-(trifluoromethyl)-phenoxy)-3,4-dihydro-isoquinolin-2(1H)-yl)-picolinamide], the IC50 is reported as 0.001 to 10 µM. O=C(Cc1cnc[nH]1)N1CCc2c(cccc2Oc2ccc(C(F)(F)F)cc2)C1 [P-0242, 2-(1H-imidazol-5-yl)-1-(5-(4-(trifluoromethyl)-phenoxy)-3,4-dihydroiso-quinolin-2(1H)-yl)ethan-1-one] was tested, and the IC50 was 0.001 to 10 µM. In the case of CS(=O)(=O)c1ccc(C(=O)N2CCc3ccc(Oc4ccc(C(F)(F)F)cc4)cc3C2)cn1 [P-0082, (6-(methylsulfonyl)pyr-idin-3-yl)(7-(4-(trifluoro-methyl)phenoxy)-3,4-dihydroisoquinolin-2(1H)-yl)methanone], the IC50 is reported as 0.001 to 10 µM. CN1CC(C(=O)N2CCc3ccc(Oc4ccc(C(F)(F)F)c(F)c4)cc3C2)C1 [P-0097, (7-(3-fluoro-4-(trifluoro-methyl)phenoxy)-3,4-dihydroisoquinolin-2(1H)-yl)(1-methylazet-idin-3-yl)methanone] was tested, and the IC50 was 0.001 to 10 µM. Compound CP(C)(=O)CCC(=O)N1CCc2ccc(Oc3ccc(C(F)(F)F)cc3)cc2C1 [P-0041, 3-(dimethylphosphoryl)-1-(7-(4-(trifluorometh-yl)phenoxy)-3,4-dihydro-isoquinolin-2(1H)-yl)-propan-1-one] has an IC50 of 0.001 to 10 µM. CS(=N)(=O)CCC(=O)N1CCc2ccc(Oc3ccc(C(F)(F)F)cc3)cc2C1 (stereo not shown) [P-0055, imino(methyl)(3-oxo-3-(7-(4-(trifluoromethyl)-phenoxy)-3,4-dihydroiso-quinolin-2(1H)-yl)prop-yl)-16-sulfanone] was tested, and the IC50 was 0.001 to 10 µM. In the case of O=C(CCc1cnc[nH]1)N1CCc2ccc(Oc3ccc(C(F)(F)F)c(F)c3)cc2C1 [P-0151, 1-(7-(3-fluoro-4-(trifluoromethyl)phen-oxy)-3,4-dihydroisoquin-olin-2(1H)-yl)-3-(1H-imidazol-5-yl)propan-1-one], the IC50 is reported as 0.001 to 10 µM. Compound C[S+]([O-])CCC(=O)N1CCc2ccc(Oc3ccc(C(F)(F)F)cc3)cc2C1 (stereo not shown) [P-0056, 3-(methylsulfinyl)-1-(7-(4-(trifluoromethyl)phen-oxy)-3,4-dihydroisoquin-olin-2(1H)-yl)propan-1-one] has an IC50 of 0.001 to 10 µM. CC(=O)N1CCC(C2c3cc(Oc4ccc(C(F)(F)F)cc4)ccc3CCN2C(=O)CCS(C)(=O)=O)C1 (stereo not shown) [P-0203, 1-(1-(1-acetylpyrrolidin-3-yl)-7-(4-(trifluorometh-yl)phenoxy)-3,4-dihydro-isoquinolin-2(1H)-yl)-3-(methylsulfonyl)-propan-1-one] showed an IC50 of 0.001 to 10 µM. NC(=O)NCC(=O)N1CCc2ccc(Oc3ccc(Cl)cc3)cc2C1 [P-0104, 1-(2-(7-(4-chlorophen-oxy)-3,4-dihydroisoquin-olin-2(1H)-yl)-2-oxoeth-yl)urea] showed an IC50 of 0.001 to 10 µM. In the case of CS(=O)(=O)NCC(=O)N1CCc2ccc(Oc3ccc(C(F)(F)F)cc3)cc2C1 [P-0071, N-(2-oxo-2-(7-(4-(trifluoromethyl)phen-oxy)-3,4-dihydroisoquin-olin-2(1H)-yl)ethyl)-methanesulfonamide], the IC50 is reported as 0.001 to 10 µM. Compound O=C1CCC(C(=O)N2CCc3ccc(Oc4ccc(C(F)(F)F)cc4)cc3C2)CN1 (stereo not shown) [P-0129, 5-(7-(4-(trifluoromethyl)-phenoxy)-1,2,3,4-tetra-hydroisoquinoline-2-carbonyl)piperidin-2-one] has an IC50 of 0.001 to 10 µM. CS(=O)(=O)CCC(=O)N1CCc2ccc(Oc3ccc(C(F)(F)F)cc3)c(-c3cnn(CC4CC4)c3)c2C1 [P-0206, 1-(8-(1-(cyclopropyl-methyl)-1H-pyrazol-4-yl)-7-(4-(trifluorometh-yl)phenoxy)-3,4-dihydro-isoquinolin-2(1H)-yl)-3-(methylsulfonyl)-propan-1-one] was tested, and the IC50 was 0.001 to 10 µM. N#CCCS(=O)(=O)N1CCc2ccc(Oc3ccc(C(F)(F)F)cc3)cc2C1 [P-0049, 3-((7-(4-(trifluorometh-yl)phenoxy)-3,4-dihydro-isoquinolin-2(1H)-yl)sul-fonyl)propanenitrile] showed an IC50 of 0.001 to 10 µM. For C[C@H](NC(=O)N1CCc2c(cccc2Oc2ccc(C(F)(F)F)cc2)C1)C1CC1 [P-0265, (S)-N-(1-cyclopropyl-ethyl)-5-(4-(trifluoro-methyl)phenoxy)-3,4-dihydroisoquinoline-2(1H)-carboxamide], the IC50 was 0.001 to 10 µM. Cc1nnc(CCC(=O)N2CCc3ccc(Oc4ccc(C(F)(F)F)cc4)cc3C2)o1 [P-0063, 3-(5-methyl-1,3,4-oxadi-azol-2-yl)-1-(7-(4-(trifluoromethyl)phen-oxy)-3,4-dihydroisoquin-olin-2(1H)-yl)propan-1-one] was tested, and the IC50 was 0.001 to 10 µM. Compound O=C(NC1(C(=O)N2CCc3ccc(Oc4ccc(C(F)(F)F)cc4)cc3C2)CC1)C(F)(F)F [P-0136, 2,2,2-trifluoro-N-(1-(7-(4-(trifluoromethyl)phen-oxy)-1,2,3,4-tetrahydro-isoquinoline-2-carbonyl)-cyclopropyl)acetamide] has an IC50 of 0.001 to 10 µM. CC(C)(C)OC(=O)NCC(=O)N1CCc2ccc(Oc3ccc(C(F)(F)F)c(F)c3)cc2C1 [P-0112, tert-butyl (2-(7-(3-fluoro-4-(trifluoromethyl)phen-oxy)-3,4-dihydroisoquin-olin-2(1H)-yl)-2-oxoeth-yl)carbamate] was tested, and the IC50 was 0.001 to 10 µM. CCN(CC)C(=O)N1CCc2ccc(Oc3ccc(C(F)(F)F)cc3)cc2C1 [P-0035, N,N-diethyl-7-(4-(trifluoromethyl)phen-oxy)-3,4-dihydroisoquin-oline-2(1H)-carboxamide] was tested, and the IC50 was 0.001 to 10 µM. With CC(C)NS(=O)(=O)N1CCc2ccc(Oc3ccc(C(F)(F)F)cc3)cc2C1 [P-0020, N-isopropyl-7-(4-(trifluoromethyl)phen-oxy)-3,4-dihydroiso-quinoline-2(1H)-sulfon-amide] the IC50 was 0.001 to 10 µM. O=C(O)CCC(=O)N1CCc2ccc(Oc3ccc(C(F)(F)F)cc3)cc2C1 [P-0057, 4-oxo-4-(7-(4-(trifluoro-methyl)phenoxy)-3,4-dihydroisoquinolin-2(1H)-yl)butanoic acid] was tested, and the IC50 was 0.001 to 10 µM. With NC(=O)NCC(=O)N1CCc2c(cccc2Oc2ccc(C(F)(F)F)cc2)C1 [P-0270, 1-(2-oxo-2-(5-(4-(trifluoromethyl)phen-oxy)-3,4-dihydroisoquin-olin-2(1H)-yl)ethyl)urea] the IC50 was 0.001 to 10 µM.

Same assay, conditions: MSTO-211H+12XGTIIC cell line, luciferase signal normalized to cell viability, 24 hours compound incubation; read-out: MSTO-211H GMean IC50 (uM) Cell Assay Reporter Cell Variant: TEAD
With CC(=O)N1CCC(C2c3cc(Oc4ccc(C(F)(F)F)cc4)ccc3CCN2C(=O)CCS(C)(=O)=O)C1 (stereo not shown) [P-0204, 1-(1-(1-acetylpyrrolidin-3-yl)-7-(4-(trifluorometh-yl)phenoxy)-3,4-dihydro-isoquinolin-2(1H)-yl)-3-(methylsulfonyl)-propan-1-one] the IC50 was 0.001 to 10 µM.

Reference: US20250129028A1, “COMPOUNDS AND METHODS FOR YAP/TEAD MODULATION AND INDICATIONS THEREFOR” (Opna Bio SA, priority 2022, published 2025)
